Test results from patent US20240228469A1, “PCSK9 INHIBITORS AND METHODS OF USE THEREOF” (AstraZeneca AB, priority 2022, published 2024).

Experiments:
[1] = biological target: T1, potassium ion channel hERG (Homo sapiens, UniProt Q12809); experiment: Assay 5 hERG assay (patch clamp, CHO cells over-expressing hERG); format: cell-based; conditions: SyncroPatch 384PE, room temperature, geometric mean, read-out: Assay 5 (hERG Hu CHO if EPh CR-Syncro) GMean IC50
T1 construct: expressed in transfected cells; host or cells: Chinese hamster ovary K1 (CHO)
T1 sequence (Q12809 whole entry): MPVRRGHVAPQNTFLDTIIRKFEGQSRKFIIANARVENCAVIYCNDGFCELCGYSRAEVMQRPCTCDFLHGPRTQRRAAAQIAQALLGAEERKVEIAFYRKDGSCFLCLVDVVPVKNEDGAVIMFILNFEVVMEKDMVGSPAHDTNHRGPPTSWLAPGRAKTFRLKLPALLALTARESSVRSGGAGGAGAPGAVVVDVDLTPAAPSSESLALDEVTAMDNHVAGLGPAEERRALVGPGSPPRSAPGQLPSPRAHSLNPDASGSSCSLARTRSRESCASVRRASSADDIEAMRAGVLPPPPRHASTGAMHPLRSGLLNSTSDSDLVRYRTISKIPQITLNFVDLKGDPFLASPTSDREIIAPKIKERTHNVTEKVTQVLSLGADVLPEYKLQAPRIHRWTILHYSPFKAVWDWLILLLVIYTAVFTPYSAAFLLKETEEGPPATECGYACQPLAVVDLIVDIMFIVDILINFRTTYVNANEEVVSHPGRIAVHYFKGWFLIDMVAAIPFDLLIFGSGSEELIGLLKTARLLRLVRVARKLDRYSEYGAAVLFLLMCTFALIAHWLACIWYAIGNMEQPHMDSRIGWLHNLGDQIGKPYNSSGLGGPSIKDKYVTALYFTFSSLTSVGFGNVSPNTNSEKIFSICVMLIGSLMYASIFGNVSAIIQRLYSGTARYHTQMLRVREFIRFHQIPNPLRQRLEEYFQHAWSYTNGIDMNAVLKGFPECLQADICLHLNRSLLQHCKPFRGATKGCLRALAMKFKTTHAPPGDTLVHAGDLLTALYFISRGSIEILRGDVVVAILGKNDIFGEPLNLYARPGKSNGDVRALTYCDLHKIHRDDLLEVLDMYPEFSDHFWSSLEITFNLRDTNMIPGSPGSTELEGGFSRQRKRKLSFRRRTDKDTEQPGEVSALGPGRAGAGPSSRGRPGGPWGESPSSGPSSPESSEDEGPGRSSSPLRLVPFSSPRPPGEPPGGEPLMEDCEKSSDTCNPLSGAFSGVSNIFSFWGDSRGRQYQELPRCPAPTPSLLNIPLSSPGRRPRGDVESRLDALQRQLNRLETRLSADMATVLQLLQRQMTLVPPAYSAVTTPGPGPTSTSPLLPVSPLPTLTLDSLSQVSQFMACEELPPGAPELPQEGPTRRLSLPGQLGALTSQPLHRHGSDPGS
Experimental: This assay (human Ether-d-go-go-Related Gene) measures activity of the compounds at the potassium ion channel hERG (human Ether-d-go-go-Related Gene).
Experiments were performed on the SyncroPatch 384PE high throughput patch clamp platform at room temperature and medium resistance chips with 4 patch holes per site. Chinese hamster ovary K1 (CHO) cell lines over-expressing the ion channel of choice (hERG) were used in assay-ready format and kept in liquid nitrogen or were used from live culture. Cells were either thawed and diluted in HBSS or were detached from flasks and resuspended in HBSS. HBSS comprised 140 mM NaCl, 4 mM KCl, 10 mM HEPES and 5 mM Glucose (pH7.4). The internal patch clamp solution was KF 120 mM, KCl 20 mM, HEPES 10 mM, EGTA 10 mM, and 25 PM Escin (pH 7.2). After the sealing process was complete, the external solution was exchanged for external patch clamp solution comprising NaCl 80 mM, KCl 4 mM, HEPES 10 mM, CaCl2 2 mM, MgCl2 1 mM, glucose 5 mM, and NMDG 60 mM (pH 7.4). All solutions were stored at room temperature, except Escin, which was stored at 4° C. All test compounds were dispensed in greiner-bio 384 well plates and tested in a 6 point cumulative assay (final DMSO concentration 0.33%). Only wells that passed previously agreed acceptance criteria for this platform were used in this analysis (30 MegaOhm seal resistance, Z prime >0.4 and current size >0.2 nA). […]

[2] = biological target: GSK3β (Glycogen synthase kinase-3 beta) (Homo sapiens, UniProt P49841); experiment: Assay 6 GSK3β assay (ThermoFisher Z-Lyte FRET); format: biochemical; conditions: ATP Conc: 10 μM, geometric mean; read-out: Assay 6 (GSK3β FRET-Z-Lyte Cr) GMean IC50
Sequence of GSK3β (Glycogen synthase kinase-3 beta) (P49841 whole entry): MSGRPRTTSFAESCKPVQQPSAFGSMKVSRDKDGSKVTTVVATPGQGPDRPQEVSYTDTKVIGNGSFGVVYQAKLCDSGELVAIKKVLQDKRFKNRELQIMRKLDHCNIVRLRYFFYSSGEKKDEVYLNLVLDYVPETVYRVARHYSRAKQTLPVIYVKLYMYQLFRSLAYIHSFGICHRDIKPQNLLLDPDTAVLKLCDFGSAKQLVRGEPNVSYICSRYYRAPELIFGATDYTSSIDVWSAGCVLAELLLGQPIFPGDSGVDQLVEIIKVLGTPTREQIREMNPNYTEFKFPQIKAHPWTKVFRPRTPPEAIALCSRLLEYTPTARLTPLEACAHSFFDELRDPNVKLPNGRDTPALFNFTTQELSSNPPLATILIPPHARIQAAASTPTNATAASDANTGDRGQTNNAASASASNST
Experimental: This assay measures the activity of the compounds at GSK33 (Glycogen synthase kinase-3 beta).
The test compounds were screened in 1% DMSO (final) in the well. For 10 point titrations, 3-fold serial dilutions are conducted from the starting concentration of 10 PM.
Bar-coded Corning, low volume NBS, black 384-well plate • 1. 2.5 μL—4× Test Compound or 100 nL 100× plus 2.4 μL kinase buffer • 2. 5 μL—2× Peptide/Kinase Mixture • 3. 2.5 μL—4×ATP Solution • 4. 30-second plate shake • 5. 60-minute Kinase Reaction incubation at room temperature • 6. 5 μL—Development Reagent Solution • 7. 30-second plate shake • 8. 60-minute Development Reaction incubation at room temperature • 9. Read on fluorescence plate reader and analyse the data
In step 2, the 2×GSK3β (GSK3 beta)/Ser/Thr (Glycogen synthase kinase-3 beta/Serine/Threonine) 09 mixture is prepared in 50 mM HEPES (4-(2-hydroxyethyl)-1-piperazineethanesulfonic acid) pH 7.5, 0.01% BRIJ-35, 10 mM MgCl2, 1 mM EGTA (egtazic acid). The final 10 μL Kinase Reaction consists of 0.22-0.92 ng GSK3β (GSK3 beta) and 2 PM Ser/Thr 09 in 50 mM HEPES pH 7.5, 0.01% BRIJ-35, 10 mM MgCl2, 1 mM EGTA.
In step 3 the ATP Solution is diluted to a 4× working concentration in Kinase Buffer (50 mM HEPES pH 7.5, 0.01% BRIJ-35, 10 mM MgCl2, 1 mM EGTA).
In Step 6 the Development Reagent is diluted 1:512 in Development Buffer (10× Novel PKC Lipid Mix: 2 mg/mL Phosphatidyl Serine, 0.2 mg/mL DAG in 20 mM HEPES, pH 7.4, 0.3% CHAPS).
SelectScreen® Kinase Profiling Service uses XLfit from IDBS. The dose response curve is curve fit to model number 205 (sigmoidal dose-response model).

PCSK9 = PCSK9 (Homo sapiens, UniProt Q8NBP7, G670E/V474I); experiment: biochemical
Sequence of PCSK9 (Q8NBP7 with tags, fused parts or gaps V474I/G670E): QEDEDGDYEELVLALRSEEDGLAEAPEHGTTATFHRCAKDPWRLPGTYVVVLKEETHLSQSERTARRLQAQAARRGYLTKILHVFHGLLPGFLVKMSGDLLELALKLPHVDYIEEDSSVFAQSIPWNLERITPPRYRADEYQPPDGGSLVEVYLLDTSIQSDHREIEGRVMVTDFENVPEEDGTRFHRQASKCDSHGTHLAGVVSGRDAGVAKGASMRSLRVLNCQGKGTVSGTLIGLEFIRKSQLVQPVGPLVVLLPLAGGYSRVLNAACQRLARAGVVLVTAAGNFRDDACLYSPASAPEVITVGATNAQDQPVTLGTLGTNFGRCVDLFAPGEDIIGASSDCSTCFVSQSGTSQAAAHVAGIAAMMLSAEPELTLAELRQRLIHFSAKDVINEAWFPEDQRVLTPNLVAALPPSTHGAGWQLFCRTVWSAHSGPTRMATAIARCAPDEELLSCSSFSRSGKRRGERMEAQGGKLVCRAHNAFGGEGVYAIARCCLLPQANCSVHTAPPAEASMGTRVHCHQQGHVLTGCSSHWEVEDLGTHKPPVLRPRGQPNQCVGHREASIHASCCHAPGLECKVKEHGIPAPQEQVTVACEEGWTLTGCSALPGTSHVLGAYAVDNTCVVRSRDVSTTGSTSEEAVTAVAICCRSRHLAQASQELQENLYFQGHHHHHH

Row | SMILES | IC50 [1] [µM] | IC50 [2] [µM] | IC50 (PCSK9) [µM]
1 | CCOC(=O)c1cnc(N[C@H]2CC[C@H](Nc3ccc(-n4ccccc4=O)cn3)C2)nn1 [Compound 10, Ethyl 3-(((1S,3S)-3-((2-oxo-2H-[1,3′-bipyridin]-6′-yl)amino)cyclopentyl)amino)-1,2,4-triazine-6-carboxylate] | > 40 | > 10 | 0.797
2 | NC(=O)CNC(=O)c1cnc(N[C@H]2CC[C@H](Nc3ccc(-n4ccccc4=O)cn3)C2)nn1 [Example 68, N-(2-Amino-2-oxoethyl)-3-(((1S,3S)-3-((2-oxo-2H-[1,3′-bipyridin]-6′-yl)amino)cyclopentyl)amino)-1,2,4-triazine-6-carboxamide] | > 40 | > 10 | 0.168
3 | Cc1cnc(N[C@H]2CC[C@H](Nc3ccc(-n4nccc(C#N)c4=O)cn3)C2)nn1 [Example 277, 2-(6-(((1S,3S)-3-((6-Methyl-1,2,4-triazin-3-yl)amino)cyclopentyl)amino)pyridin-3-yl)-3-oxo-2,3-dihydropyridazine-4-carbonitrile] | > 40.1 | 9.56 | 0.0049
4 | CN(C)c1cnc(N[C@H]2CC[C@H](Nc3ccc(-n4ccccc4=O)cn3)C2)nn1 [Example 256, 6′-(((1S,3S)-3-((6-(Dimethylamino)-1,2,4-triazin-3-yl)amino)cyclopentyl)amino)-2H-[1,3′-bipyridin]-2-one] | > 40.1 | 1.68 | 0.119
5 | O=c1ccccn1-c1ccc(N[C@H]2CC[C@H](Nc3ncc(-c4ccn[nH]4)nn3)C2)nc1 [Example 257, 6′-(((1S,3S)-3-((6-(1H-Pyrazol-5-yl)-1,2,4-triazin-3-yl)amino)cyclopentyl)amino)-2H-[1,3′-bipyridin]-2-one] | > 40.1 | 2.81 | 0.062
6 | Cn1cccc(-c2cnc(N[C@H]3CC[C@H](Nc4ncc(C5CC5)nn4)C3)cn2)c1=O [Example 113, 3-(5-(((1S,3S)-3-((6-Cyclopropyl-1,2,4-triazin-3-yl)amino)cyclopentyl)amino)pyrazin-2-yl)-1-methylpyridin-2(1H)-one] | > 40 | > 10 | 0.041
7 | CN(CCO)C(=O)c1cnc(N[C@H]2CC[C@H](Nc3ccc(-n4ccccc4=O)cn3)C2)nn1 [Example 151, N-(2-Hydroxyethyl)-N-methyl-3-(((1S,3S)-3-((2-oxo-2H-[1,3′-bipyridin]-6′-yl)amino)cyclopentyl)amino)-1,2,4-triazine-6-carboxamide] | > 40.1 | > 10 | 2.25
8 | O=c1cccnn1-c1cnc(N[C@H]2CC[C@H](Nc3ncc(C4CC4)nn3)C2)cn1 [Example 59, 2-(5-(((1S,3S)-3-((6-Cyclopropyl-1,2,4-triazin-3-yl)amino)cyclopentyl)amino)pyrazin-2-yl)pyridazin-3(2H)-one] | > 40 | > 10 | 0.045
9 | Cc1cnc(N[C@H]2CC[C@H](Nc3ccc(-n4ccc(C#N)cc4=O)cn3)C2)nn1 [Example 183, 6′-(((1S,3S)-3-((6-Methyl-1,2,4-triazin-3-yl)amino)cyclopentyl)amino)-2-oxo-2H-[1,3′-bipyridine]-4-carbonitrile] | > 40.1 | > 10 | 0.03
10 | O=c1cccnn1-c1cnc(N[C@H]2CC[C@H](Nc3ncc(C4CC4)nn3)C2)nc1 [Example 119, 2-(2-(((1S,3S)-3-((6-Cyclopropyl-1,2,4-triazin-3-yl)amino)cyclopentyl)amino)pyrimidin-5-yl)pyridazin-3(2H)-one] | > 40 | > 10 | 0.073
11 | Cc1cnc(N[C@H]2CC[C@H](Nc3ccc(-n4cc5ccccc5n4)cn3)C2)nn1 [Example 312, (1S,3S)—N^1-(5-(2H-Indazol-2-yl)pyridin-2-yl)-N^3-(6-methyl-1,2,4-triazin-3-yl)cyclopentane-1,3-diamine] | 4.2 | > 10 | 0.037
12 | Cc1cnc(NCC(CCO)CNc2ccc(-n3cccc(C)c3=O)cn2)nn1 (racemic) [Example 315, rac-6′-((4-Hydroxy-2-(((6-methyl-1,2,4-triazin-3-yl)amino)methyl)butyl)amino)-3-methyl-2H-[1,3′-bipyridin]-2-one] | > 40.1 | > 10 | 1.29
13 | COc1cccc(OC)c1-c1ccc(N[C@H]2CC[C@H](Nc3ncc(C)nn3)C2)nc1 [Example 307, (1S,3S)—N^1-(5-(2,6-Dimethoxyphenyl)pyridin-2-yl)-N^3-(6-methyl-1,2,4-triazin-3-yl)cyclopentane-1,3-diamine] | 23.3 | > 10 | 1.66
14 | Cc1cnc(N[C@H]2CC[C@H](Nc3ccc(-c4ccccn4)cn3)C2)nn1 [Example 309, (1S,3S)—N′-([2,3′-Bipyridin]-6′-yl)-N^3-(6-methyl-1,2,4-triazin-3-yl)cyclopentane-1,3-diamine] | 11.4 | > 10 | 0.534
15 | Cc1cnc(N[C@H]2CC[C@H](Nc3ccc(-c4ccccc4C#N)cn3)C2)nn1 [Example 247, 2-(6-(((1S,3S)-3-((6-Methyl-1,2,4-triazin-3-yl)amino)cyclopentyl)amino)pyridin-3-yl)benzonitrile] | 6.6 | > 10 | 0.075
16 | Cc1cnc(N[C@H]2CC[C@H](Nc3ccc(-c4nc(C)oc4C)cn3)C2)nn1 [Example 314, (1S,3S)—N^1-(5-(2,5-Dimethyloxazol-4-yl)pyridin-2-yl)-N^3-(6-methyl-1,2,4-triazin-3-yl)cyclopentane-1,3-diamine] | 25.7 | > 10 | 0.11
17 | O=c1ccncn1-c1cnc(N[C@H]2CC[C@H](Nc3ncc(C4CC4)nn3)C2)nc1 [Example 120, 2′-(((1S,3S)-3-((6-Cyclopropyl-1,2,4-triazin-3-yl)amino)cyclopentyl)amino)-6H-[1,5′-bipyrimidin]-6-one] | > 40.1 | > 10 | 0.143
18 | Cc1nnc(N[C@H]2CC[C@H](Nc3ccc(-n4ccccc4=O)cn3)C2)[nH]c1=O [Example 254, 6′-(((1S,3S)-3-((6-Methyl-5-oxo-4,5-dihydro-1,2,4-triazin-3-yl)amino)cyclopentyl)amino)-2H-[1,3′-bipyridin]-2-one] | > 40.1 | 6.14 | 0.33
19 | Cc1cnc(N[C@H]2CC[C@H](Nc3ccc(-n4nc(Cl)ccc4=O)cn3)C2)nn1 [Example 222] | > 40.1 | > 10 | 0.0083
20 | COc1cccc(F)c1-c1ccc(N[C@H]2CC[C@H](Nc3ncc(C)nn3)C2)nc1 [Example 308, (1S,3S)—N′-(5-(2-Fluoro-6-methoxyphenyl)pyridin-2-yl)-N^3-(6-methyl-1,2,4-triazin-3-yl)cyclopentane-1,3-diamine] | 12 | > 10 | 0.051
21 | O=c1ccccn1-c1ccc(N[C@H]2CC[C@H](Nc3ncc(Cl)nn3)C2)nc1 [Example 255, 6′-(((1S,3S)-3-((6-Chloro-1,2,4-triazin-3-yl)amino)cyclopentyl)amino)-2H-[1,3′-bipyridin]-2-one] | > 40.1 | 5.33 | 0.078
